Values of other authors as cited in patent US20080286377A1 (priority 2001, published 2008).

Assays:
[1] = activity assays
[2] = system: osteolysis associated with wear debris; conditions: systemic administration
bone resorption = conditions: mild to moderate Paget's disease; administration for 10 days (intravenous) to 6 months (oral); SAP activity and UHP excretion as indicators

**Q.** Which “effect of PMMA polymerization process on drug potency” value (“effect of PMMA polymerization process” for short) [1] does the source give for `N.N.[Cl][Pt][Cl]` [cisplatin] here?
**A.** The value was “did not adversely impact or alter the therapeutic potential”.

**Q.** With `NCCCC(O)(P(=O)(O)O)P(=O)(O)O` [alendronate] as the molecule, how does the “osteolysis associated with wear debris” value [2] read?
**A.** The value was “inhibited osteolysis”.

**Q.** What about the “prevention of resorption, 10-second contact” value (alveolar bone resorption; 10-second contact of soaked pellet to alveolar bone) of the same molecule?
**A.** Its value is “ineffective in preventing resorption”.

**Q.** What about the “bone resorption after local administration” value (alveolar bone resorption; drug-soaked pellet against alveolar bone for 2 hours, monitored 21 days later) of the same molecule?
**A.** Its value is “significantly reduced bone resorption”.

**Q.** And the “prevention of resorption, systemic administration” value (alveolar bone resorption; systemic administration)?
**A.** The value was “effective”.

**Q.** With `NCCC(O)(P(=O)(O)O)P(=O)(O)O` [pamidronate disodium] as the molecule, how does the “biochemical remission of bone resorption, mean duration” value (bone resorption) read?
**A.** The value was 2.7 years.

**Q.** With `CN(Cc1cnc2nc(N)nc(N)c2n1)c1ccc(C(=O)N[C@@H](CCC(=O)O)C(=O)O)cc1` [methotrexate] as the molecule, how does the “effect of PMMA polymerization process” value [1] read?
**A.** The value was “did not adversely impact or alter the therapeutic potential”.

**Q.** With Gentamicin as the molecule, how does the “effect of PMMA polymerization process” value [1] read?
**A.** The value was “did not adversely impact or alter the therapeutic potential”.
